Laboratory results reported in patent publication US20230331673A1, “COMPOSITION OF COMPOUNDS THAT MODULATE CELL METABOLISM AND METHODS OF USE” (CRESCENTA BIOSCIENCES, priority 2020, published 2023).

Each molecule was assayed on differentiated 3T3-L1 mouse adipocyte cells (assay: Adipocyte glucose consumption in differentiated 3T3-L1 mouse adipocyte cells (loss of glucose from medium, colorimetric)). Details: compound 10 μM, 22 to 24 hours, differentiated 3T3-L1 adipocytes, compound/DMSO, read-out: Glucose consumption (fold change) Mean.
Format: cell-based
Protocol: Activity of compounds on adipocyte glucose consumption was tested in differentiated 3T3-L1 mouse adipocyte cells. 3T3-L1 preadipocytes (ATCC) were routinely cultured in a growth medium composed of DMEM high-glucose (Sigma), 10% FBS (Gibco), 10 U/ml penicillin and 10 μg/ml streptomycin (P/S; Gibco). To induce adipogenic differentiation, a confluent layer of 3T3-L1 cells were incubated with the growth medium containing 2 μM rosiglitazone, 1 μM dexamethasone, 500 μM IBMX, and 1 μg/ml insulin (Sigma). Forty-eight (48) hours later (on day 2) and on days 4 and 6, medium of the cells was replaced with fresh medium containing 1 μg/ml insulin. On days 8 and 10, the medium was refreshed with regular growth medium and addition of insulin was omitted. On day 11 or 12, medium of the cells were replaced with fresh medium containing either the indicated compounds (10 μM) or the vehicle in which the compounds were dissolved (DMSO). The final concentration of DMSO was 0.1% (v/v). Growth medium containing 0.1% DMSO was incubated in culture wells containing no cells and used as control. Twenty-two to 24 hours later, medium was harvested and subjected to centrifugation at 10,000 g for 5 min. Glucose concentration in the supernatants was determined using a colorimetric assay (Glucose Assay Kit I, Eton Biosciences). Glucose consumption in compound and vehicle treated cells was measured as loss of glucose from the culture medium and represented as mean fold change (compound/DMSO) t standard deviation (SD).
CCCCC1CCCc2c1n(Cc1cccc(C(N)=O)c1)c1c(C(=O)O)cccc21 (stereo not shown) [1-butyl-9-[(3-carbamoylphenyl)methyl]-2,3,4,9-tetrahydro-1H-carbazole-8-carboxylic acid] gave a fold induction at 10 µM of 1.02. CCCCC1CCCc2c1n(Cc1cccc(C#N)c1)c1c(C(=O)O)cccc21 (stereo not shown) [1-butyl-9-[(3-cyanophenyl)methyl]-2,3,4,9-tetrahydro-1H-carbazole-8-carboxylic acid] was tested, and the fold induction at 10 µM was 1.14. For CCCCC1CCCc2c(n(Cc3cccc(C(N)=O)c3)c3c(C(=O)NCC(=O)O)cccc23)C1 (stereo not shown) [2-({7-butyl-5-[(3-carbamoylphenyl)methyl]-5H,6H,7H,8H,9H,10H-cyclohepta[b]indol-4-yl}formamido)acetic acid], the fold induction at 10 µM was 0.9. CCCCC1CCCc2c(n(Cc3cccc(C#N)c3)c3c(C(=O)NCC(=O)O)cccc23)C1 (stereo not shown) [2-({7-butyl-5-[(3-cyanophenyl)methyl]-5H,6H,7H,8H,9H,10H-cyclohepta[b]indol-4-yl}formamido)acetic acid] was tested, and the fold induction at 10 µM was 1.2. CCCCC1Cc2c(n(Cc3cccc(C(N)=O)c3)c3c(C(=O)O)cccc23)C1 (stereo not shown) [2-butyl-4-[(3-carbamoylphenyl)methyl]-1H,2H,3H,4H-cyclopenta[b]indole-5-carboxylic acid] showed a fold induction at 10 µM of 1.14. With CCCCC1Cc2c(n(Cc3cccc(C#N)c3)c3c(C(=O)O)cccc23)C1 (stereo not shown) [2-butyl-4-[(3-cyanophenyl)methyl]-1H,2H,3H,4H-cyclopenta[b]indole-5-carboxylic acid] the fold induction at 10 µM was 1.28. CCCCC1CCc2c(n(Cc3cccc(C(N)=O)c3)c3c(C(=O)O)cccc23)C1 (stereo not shown) [2-butyl-9-[(3-carbamoylphenyl)methyl]-2,3,4,9-tetrahydro-1H-carbazole-8-carboxylic acid] showed a fold induction at 10 µM of 1.1. Work on CCCCCCC1CCc2c(n(Cc3ccnc(OC)c3)c3c(C(=O)O)cccc23)C1 (stereo not shown) [2-hexyl-9-[(2-methoxypyridin-4-yl)methyl]-2,3,4,9-tetrahydro-1H-carbazole-8-carboxylic acid] yielded a fold induction at 10 µM of 1.19. With CCCCCCC1CCc2c(n(Cc3ccccc3C)c3c(C(=O)O)cccc23)C1 (stereo not shown) [2-hexyl-9-[(2-methylphenyl)methyl]-2,3,4,9-tetrahydro-1H-carbazole-8-carboxylic acid] the fold induction at 10 µM was 1.23. In the case of CCCCCCC1CCc2c(n(Cc3cccc(O)c3)c3c(C(=O)O)cccc23)C1 (stereo not shown) [2-hexyl-9-[(3-hydroxyphenyl)methyl]-2,3,4,9-tetrahydro-1H-carbazole-8-carboxylic acid], the fold induction at 10 µM is reported as 1.11. For CCCCCCC1CCc2c(n(Cc3cccnc3)c3c(C(=O)O)cccc23)C1 (stereo not shown) [2-hexyl-9-[(pyridin-3-yl)methyl]-2,3,4,9-tetrahydro-1H-carbazole-8-carboxylic acid], the fold induction at 10 µM was 1.21. With CCCCC1CCc2c1n(Cc1cccc(C(N)=O)c1)c1c(C(=O)O)cccc21 (stereo not shown) [3-butyl-4-[(3-carbamoylphenyl)methyl]-1H,2H,3H,4H-cyclopenta[b]indole-5-carboxylic acid] the fold induction at 10 µM was 1.15. Molecule CCCCC1CCc2c1n(Cc1cccc(C#N)c1)c1c(C(=O)O)cccc21 (stereo not shown) [3-butyl-4-[(3-cyanophenyl)methyl]-1H,2H,3H,4H-cyclopenta[b]indole-5-carboxylic acid] has a fold induction at 10 µM of 1.21. CCCCC1CCc2c(c3cccc(C(=O)O)c3n2Cc2cccc(C(N)=O)c2)C1 (stereo not shown) [3-butyl-9-[(3-carbamoylphenyl)methyl]-2,3,4,9-tetrahydro-1H-carbazole-8-carboxylic acid] gave a fold induction at 10 µM of 1.09. With CCCCC1CCc2c(c3cccc(C(=O)O)c3n2Cc2cccc(C#N)c2)C1 (stereo not shown) [3-butyl-9-[(3-cyanophenyl)methyl]-2,3,4,9-tetrahydro-1H-carbazole-8-carboxylic acid] the fold induction at 10 µM was 1.14. In the case of CCCCCC1Cc2c(n(Cc3cccc(C(N)=O)c3)c3c(C(=O)O)cccc23)C1 (stereo not shown) [4-[(3-carbamoylphenyl)methyl]-2-pentyl-1H,2H,3H,4H-cyclopenta[b]indole-5-carboxylic acid], the fold induction at 10 µM is reported as 0.68. In the case of CCC1CCc2c1n(Cc1cccc(C(N)=O)c1)c1c(C(=O)O)cccc21 (stereo not shown) [4-[(3-carbamoylphenyl)methyl]-3-ethyl-1H,2H,3H,4H-cyclopenta[b]indole-5-carboxylic acid], the fold induction at 10 µM is reported as 1.02. In the case of CCCC1CCc2c1n(Cc1cccc(C(N)=O)c1)c1c(C(=O)O)cccc21 (stereo not shown) [4-[(3-carbamoylphenyl)methyl]-3-propyl-1H,2H,3H,4H-cyclopenta[b]indole-5-carboxylic acid], the fold induction at 10 µM is reported as 1.18. For CCCCCC1Cc2c(n(Cc3cccc(C#N)c3)c3c(C(=O)O)cccc23)C1 (stereo not shown) [4-[(3-cyanophenyl)methyl]-2-pentyl-1H,2H,3H,4H-cyclopenta[b]indole-5-carboxylic acid], the fold induction at 10 µM was 1.18. For CCC1CCc2c1n(Cc1cccc(C#N)c1)c1c(C(=O)O)cccc21 (stereo not shown) [4-[(3-cyanophenyl)methyl]-3-ethyl-1H,2H,3H,4H-cyclopenta[b]indole-5-carboxylic acid], the fold induction at 10 µM was 1.12. Molecule CCCC1CCc2c1n(Cc1cccc(C#N)c1)c1c(C(=O)O)cccc21 (stereo not shown) [4-[(3-cyanophenyl)methyl]-3-propyl-1H,2H,3H,4H-cyclopenta[b]indole-5-carboxylic acid] has a fold induction at 10 µM of 1.38. For CCCCC1CCCc2c1c1cccc(C(=O)O)c1n2Cc1cccc(C(N)=O)c1 (stereo not shown) [4-butyl-9-[(3-carbamoylphenyl)methyl]-2,3,4,9-tetrahydro-1H-carbazole-8-carboxylic acid], the fold induction at 10 µM was 1.35. Work on CCCCC1CCCc2c1c1cccc(C(=O)O)c1n2Cc1cccc(C#N)c1 (stereo not shown) [4-butyl-9-[(3-cyanophenyl)methyl]-2,3,4,9-tetrahydro-1H-carbazole-8-carboxylic acid] yielded a fold induction at 10 µM of 1.28. For CCCCCCC1CCCc2c(n(Cc3ccc4ncoc4c3)c3c(C(=O)O)cccc23)C1 (stereo not shown) [5-[(1,3-benzoxazol-6-yl)methyl]-7-hexyl-5H,6H,7H,8H,9H,10H-cyclohepta[b]indole-4-carboxylic acid], the fold induction at 10 µM was 1.17. CCCCCCC1CCCc2c(n(Cc3ccccc3C(N)=O)c3c(C(=O)O)cccc23)C1 (stereo not shown) [5-[(2-carbamoylphenyl)methyl]-7-hexyl-5H,6H,7H,8H,9H,10H-cyclohepta[b]indole-4-carboxylic acid] was tested, and the fold induction at 10 µM was 0.97. Molecule CCCCCCC1CCCc2c(n(Cc3ccccc3F)c3c(C(=O)O)cccc23)C1 (stereo not shown) [5-[(2-fluorophenyl)methyl]-7-hexyl-5H,6H,7H,8H,9H,10H-cyclohepta[b]indole-4-carboxylic acid] has a fold induction at 10 µM of 1.17. CCCCCCC1CCCc2c(n(Cc3c(C)noc3C)c3c(C(=O)O)cccc23)C1 (stereo not shown) [5-[(3,5-dimethyl-1,2-oxazol-4-yl)methyl]-7-hexyl-5H,6H,7H,8H,9H,10H-cyclohepta[b]indole-4-carboxylic acid] showed a fold induction at 10 µM of 0.95. Molecule CCC1CCCc2c(n(Cc3cccc(C(N)=O)c3)c3c(C(=O)O)cccc23)C1 (stereo not shown) [5-[(3-carbamoylphenyl)methyl]-7-ethyl-5H,6H,7H,8H,9H,10H-cyclohepta[b]indole-4-carboxylic acid] has a fold induction at 10 µM of 0.96. For CCCCCCC1CCCc2c(n(Cc3cccc(C(N)=O)c3)c3c(C(=O)O)cccc23)C1 (stereo not shown) [5-[(3-carbamoylphenyl)methyl]-7-hexyl-5H,6H,7H,8H,9H,10H-cyclohepta[b]indole-4-carboxylic acid], the fold induction at 10 µM was 1.26. Molecule CCCCCCCCC1CCCc2c(n(Cc3cccc(C(N)=O)c3)c3c(C(=O)O)cccc23)C1 (stereo not shown) [5-[(3-carbamoylphenyl)methyl]-7-octyl-5H,6H,7H,8H,9H,10H-cyclohepta[b]indole-4-carboxylic acid] has a fold induction at 10 µM of 1.13. Work on CCCCCC1CCCc2c(n(Cc3cccc(C(N)=O)c3)c3c(C(=O)O)cccc23)C1 (stereo not shown) [5-[(3-carbamoylphenyl)methyl]-7-pentyl-5H,6H,7H,8H,9H,10H-cyclohepta[b]indole-4-carboxylic acid] yielded a fold induction at 10 µM of 1.27. With CCCC1CCCc2c(n(Cc3cccc(C(N)=O)c3)c3c(C(=O)O)cccc23)C1 (stereo not shown) [5-[(3-carbamoylphenyl)methyl]-7-propyl-5H,6H,7H,8H,9H,10H-cyclohepta[b]indole-4-carboxylic acid] the fold induction at 10 µM was 1.06. Work on CCC1CCCCc2c1c1cccc(C(=O)O)c1n2Cc1cccc(C(N)=O)c1 (stereo not shown) [5-[(3-carbamoylphenyl)methyl]-10-ethyl-5H,6H,7H,8H,9H,10H-cyclohepta[b]indole-4-carboxylic acid] yielded a fold induction at 10 µM of 0.99. In the case of CCCCCC1CCCCc2c1c1cccc(C(=O)O)c1n2Cc1cccc(C(N)=O)c1 (stereo not shown) [5-[(3-carbamoylphenyl)methyl]-10-pentyl-5H,6H,7H,8H,9H,10H-cyclohepta[b]indole-4-carboxylic acid], the fold induction at 10 µM is reported as 1.27. Molecule CCCC1CCCCc2c1c1cccc(C(=O)O)c1n2Cc1cccc(C(N)=O)c1 (stereo not shown) [5-[(3-carbamoylphenyl)methyl]-10-propyl-5H,6H,7H,8H,9H,10H-cyclohepta[b]indole-4-carboxylic acid] has a fold induction at 10 µM of 1.02. Molecule CCCCCCC1CCCc2c(n(Cc3cccc(C(=O)O)c3)c3c(C(=O)O)cccc23)C1 (stereo not shown) [5-[(3-carboxyphenyl)methyl]-7-hexyl-5H,6H,7H,8H,9H,10H-cyclohepta[b]indole-4-carboxylic acid] has a fold induction at 10 µM of 1.15. CCCCCCC1CCCc2c(n(Cc3cccc(Cl)c3)c3c(C(=O)O)cccc23)C1 (stereo not shown) [5-[(3-chlorophenyl)methyl]-7-hexyl-5H,6H,7H,8H,9H,10H-cyclohepta[b]indole-4-carboxylic acid] gave a fold induction at 10 µM of 1.18.
